# Results from US9688695B2, “Imidazothiadiazole and imidazopyrazine derivatives as protease activated receptor 4 (PAR4) inhibitors for treating platelet aggregation” (BRISTOL-MYERS SQUIBB COMPANY, priority 2012, dated 2017).
# Target: PAR4 (Homo sapiens (Human), UniProt Q96RI0)
# Experiment: FLIPR assay in PAR4-expressing HEK293 cells (PAR4 antagonist activity, calcium mobilization)
# Format: cell-based
# Conditions: H-Ala-Phe(4-F)-Pro-Gly-Trp-Leu-Val-Lys-Asn-Gly-NH2-induced calcium mobilization
# Summary of the method: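 HEK293 EBNA cells stably expressing human PAR4 (also endogenous PAR1) preincubated 30 min at room temperature with compound in HBSS/10 mM HEPES, 0.67% DMSO final. PAR4 agonist peptide then added and intracellular calcium mobilization monitored by fluorescence.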
# Chain of PAR4 (Q96RI0 18-385): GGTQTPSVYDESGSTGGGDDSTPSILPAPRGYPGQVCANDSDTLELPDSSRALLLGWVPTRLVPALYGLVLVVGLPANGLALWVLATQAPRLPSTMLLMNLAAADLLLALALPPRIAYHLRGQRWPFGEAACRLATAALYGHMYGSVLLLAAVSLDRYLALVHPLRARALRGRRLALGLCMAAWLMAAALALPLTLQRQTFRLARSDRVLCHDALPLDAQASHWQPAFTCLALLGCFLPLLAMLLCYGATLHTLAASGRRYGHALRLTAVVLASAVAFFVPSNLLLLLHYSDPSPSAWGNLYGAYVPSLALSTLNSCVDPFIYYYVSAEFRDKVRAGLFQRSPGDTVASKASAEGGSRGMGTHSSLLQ
row,Structure (SMILES),EC50
1,"COc1cc(OCc2nc(-c3ccnc(F)c3)sc2C(C)C)c2cc(-c3cn4nc(OC)sc4n3)oc2c1 [Example 43, 6-(4-((2-(2-Fluoropyridin-4-yl)-5-isopropylthiazol-4-yl)methoxy)-6-methoxybenzofuran-2-yl)-2-methoxyimidazo[2,1-b][1,3,4]thiadiazole]",0.34 nM
2,"COc1cc(OCc2csc(N3CCN(C(=O)OC(C)(C)C)CC3)n2)c2cc(-c3cn4nc(OC)sc4n3)oc2c1 [Example 99, tert-Butyl 4-(4-(((6-methoxy-2-(2-methoxyimidazo[2,1-b][1,3,4]thiadiazol-6-yl)benzofuran-4-yl)oxy)methyl)thiazol-2-yl)piperazine-1-carboxylate]",0.84 nM
3,COc1cc(OCc2csc(-c3ccncc3)n2)c2cc(-c3cn4nc(C)ccc4n3)oc2c1 [Example 232],0.99 nM
4,"COc1cc(OCc2coc(N3CC4CCC(C3)O4)n2)c2cc(-c3cn4nc(OC)sc4n3)oc2c1 [Example 98, 3-(4-(((6-Methoxy-2-(2-methoxyimidazo[2,1-b][1,3,4]thiadiazol-6-yl)benzofuran-4-yl)oxy)methyl)oxazol-2-yl)-8-oxa-3-azabicyclo[3.2.1]octane]",0.37 nM
5,COc1cc(OCc2csc(CCC3CC3)n2)c2cc(-c3cn4nc(OC)sc4n3)oc2c1 [Example 60],0.38 nM
6,"COc1cc(OCc2csc(-c3cnco3)n2)c2cc(-c3cn4nc(OC)sc4n3)oc2c1 [Example 117, 5-(4-(((6-methoxy-2-(2-methoxyimidazo[2,1-b][1,3,4]thiadiazol-6-yl)benzofuran-4-yl)oxy)methyl)thiazol-2-yl)oxazole]",0.43 nM
7,COc1cc(OCc2csc(N3CCC(F)CC3)n2)c2cc(-c3cn4nc(C)ccc4n3)oc2c1 [Example 272],2 nM
8,"COc1cc(OCc2csc(N3CCN(S(C)(=O)=O)CC3)n2)c2cc(-c3cn4nc(OC)sc4n3)oc2c1 [Example 100, 2-Methoxy-6-(6-methoxy-4-((2-(4-(methylsulfonyl)piperazin-1-yl)thiazol-4-yl)methoxy)benzofuran-2-yl)imidazo[2,1-b][1,3,4]thiadiazole]",0.25 nM
9,"COc1cccc(C2(c3nc(COc4cc(OC)cc5oc(-c6cn7nc(OC)sc7n6)cc45)cs3)CCOCC2)c1 [Example 158, 2-Methoxy-6-(6-methoxy-4-((2-(4-(3-methoxyphenyl)tetrahydro-2H-pyran-4-yl)thiazol-4-yl)methoxy)benzofuran-2-yl)imidazo[2,1-b][1,3,4]thiadiazole]",0.95 nM
10,COc1cccc(Nc2nc(COc3cc(OC)cc4oc(-c5cn6nc(C)ccc6n5)cc34)cs2)c1 [Example 283],2.9 nM
11,COc1cc(OCc2csc(N3CCC(F)(F)CC3)n2)c2cc(-c3cn4nc(OC)sc4n3)oc2c1 [Example 31],0.59 nM
12,CCC1CCN(c2nc(COc3cc(OC)cc4oc(-c5cn6nc(C)ccc6n5)cc34)cs2)CC1 [Example 271],1.3 nM
13,COc1cc(OCc2csc(C(O)(C3CC3)C3CC3)n2)c2cc(-c3cn4nc(OC)sc4n3)oc2c1 [Example 144],0.26 nM
14,"COc1cc(OCc2csc(C3(O)CCOC3)n2)c2cc(-c3cn4nc(OC)sc4n3)oc2c1 (centres unmarked) [Example 123, 3-(4-(((6-Methoxy-2-(2-methoxyimidazo[2,1-b][1,3,4]thiadiazol-6-yl)benzofuran-4-yl)oxy)methyl)thiazol-2-yl)tetrahydrofuran-3-ol]",0.5 nM
15,"COc1cc(OCc2nc(C3(F)CCOCC3)sc2C(F)(F)F)c2cc(-c3cn4nc(OC)sc4n3)oc2c1 [Example 132, 6-(4-((2-(4-Fluorotetrahydro-2H-pyran-4-yl)-5-(trifluoromethyl)thiazol-4-yl)methoxy)-6-methoxybenzofuran-2-yl)-2-methoxyimidazo[2,1-b][1,3,4]thiadiazole]",1.9 nM
16,COc1cc(OCc2csc(N3CCC(F)(F)CC3)n2)c2cc(-c3cn4nc(C)ccc4n3)oc2c1 [Example 235],0.44 nM
17,COc1cc(OCc2nc(-c3ccccc3)sc2C)c2cc(-c3cn4nc(OC)sc4n3)oc2c1 [Example 13],2.1 nM
18,COc1cc(OCc2csc(CCC(F)(F)F)n2)c2cc(-c3cn4nc(OC)sc4n3)oc2c1 [Example 58],0.33 nM
19,"COc1cc(OCc2csc(C3(O)CCC(C(=O)OC(C)(C)C)CC3)n2)c2cc(-c3cn4nc(OC)sc4n3)oc2c1 (centres unmarked) [Example 149, tert-Butyl 4-hydroxy-4-(4-(((6-methoxy-2-(2-methoxyimidazo[2,1-b][1,3,4]thiadiazol-6-yl)benzofuran-4-yl)oxy)methyl)thiazol-2-yl)cyclohexanecarboxylate]",4.1 nM
20,"CNC(=O)c1ccc(-c2nc(COc3cc(F)cc4oc(-c5cn6nc(OC)sc6n5)cc34)c(C)s2)cc1 [Example 186, 4-(4-(((6-Fluoro-2-(2-methoxyimidazo[2,1-b][1,3,4]thiadiazol-6-yl)benzofuran-4-yl)oxy)methyl)-5-methylthiazol-2-yl)-N-methylbenzamide]",0.58 nM
21,"COc1cc(OCc2csc(C3(c4ccccc4)CCOCC3)n2)c2cc(-c3cn4nc(OC)sc4n3)oc2c1 [Example 162, 2-Methoxy-6-(6-methoxy-4-((2-(4-phenyltetrahydro-2H-pyran-4-yl)thiazol-4-yl)methoxy)benzofuran-2-yl)imidazo[2,1-b][1,3,4]thiadiazole]",0.67 nM
22,COc1cc(OCc2csc(C3CCCCC3)n2)c2cc(-c3cn4nc(OC)sc4n3)oc2c1 [Example 20],1.1 nM
23,"COc1cc(OCc2csc(C3(c4cccc(Cl)c4)CCOCC3)n2)c2cc(-c3cn4nc(OC)sc4n3)oc2c1 [Example 155, 6-(4-((2-(4-(3-Chlorophenyl)tetrahydro-2H-pyran-4-yl)thiazol-4-yl)methoxy)-6-methoxybenzofuran-2-yl)-2-methoxyimidazo[2,1-b][1,3,4]thiadiazole]",0.62 nM
24,COc1cc(OCc2csc(N3CCSCC3)n2)c2cc(-c3cn4nc(C)ccc4n3)oc2c1 [Example 258],0.81 nM
25,"COc1cc(OCc2csc(C3(c4ccc(C)cc4)CCOC3)n2)c2cc(-c3cn4nc(OC)sc4n3)oc2c1 (centres unmarked) [Example 164, 2-Methoxy-6-(6-methoxy-4-((2-(3-(p-tolyl)tetrahydrofuran-3-yl)thiazol-4-yl)methoxy)benzofuran-2-yl)imidazo[2,1-b][1,3,4]thiadiazole]",1.3 nM
26,COc1cc(OCc2csc(CC(C)C)n2)c2cc(-c3cn4nc(OC)sc4n3)oc2c1 [Example 50],0.21 nM
27,"COc1cc(OCc2nc(N3CCOCC3)sc2CO)c2cc(-c3cn4nc(OC)sc4n3)oc2c1 [Example 89, (4-(((6-Methoxy-2-(2-methoxyimidazo[2,1-b][1,3,4]thiadiazol-6-yl)benzofuran-4-yl)oxy)methyl)-2-morpholinothiazol-5-yl)methanol]",0.69 nM
28,COc1cc(OCc2csc(N3CCN(c4ccccc4)CC3)n2)c2cc(-c3cn4nc(C)ccc4n3)oc2c1 [Example 262],0.75 nM

# More lines, now with the values ahead:
row,EC50,Structure (SMILES)
1,0.85 nM,"COc1nn2cc(-c3cc4c(OCc5csc(-c6ccc(Cl)cc6)n5)cc(Cl)cc4o3)nc2s1 [Example 188, 6-(6-Chloro-4-((2-(4-chlorophenyl)thiazol-4-yl)methoxy)benzofuran-2-yl)-2-methoxyimidazo[2,1-b][1,3,4]thiadiazole]"
2,0.82 nM,"COc1cc(OCc2csc(-c3ccc(C(F)(F)F)cc3)n2)c2cc(-c3cn4nc(C)ccc4n3)oc2c1 [Example 208, 4-(((6-Methoxy-2-(6-methylimidazo[1,2-b]pyridazin-2-yl)benzofuran-4-yl)oxy)methyl)-2-(4-(trifluoromethyl)phenyl)thiazole]"
3,0.72 nM,"COc1cc(OCc2csc(-c3ccncc3)n2)c2cc(-c3cn4nc(C)ccc4n3)oc2c1 [Example 211, 4-(((6-Methoxy-2-(6-methylimidazo[1,2-b]pyridazin-2-yl)benzofuran-4-yl)oxy)methyl)-2-(pyridin-4-yl)thiazole]"
4,1.1 nM,COc1cc(OCc2csc(-c3ccc(F)cc3F)n2)c2cc(-c3cn4nc(OC)sc4n3)oc2c1 [Example 24]
5,2.2 nM,C=CCN(C)C(=O)c1ccc(-c2nc(COc3cc(OC)cc4oc(-c5cn6nc(OC)sc6n5)cc34)cs2)cc1 [Example 296]
6,1.6 nM,"COc1cc(OCc2csc(-c3ccc(C(=O)N(C)C)cc3)n2)c2cc(-c3cn4nc([C@H](C)F)sc4n3)oc2c1 [Example 194, (S)-4-(4-(((2-(2-(1-Fluoroethyl)imidazo[2,1-b][1,3,4]thiadiazol-6-yl)-6-methoxybenzofuran-4-yl)oxy)methyl)thiazol-2-yl)-N,N-dimethylbenzamide]"
7,1.2 nM,CCNC(=O)c1ccc(-c2nc(COc3cc(OC)cc4oc(-c5cn6nc(OC)sc6n5)cc34)cs2)cc1 [Example 306]
8,0.75 nM,COc1cc(OCc2csc(-c3ccc(C#N)cc3)n2)c2cc(-c3cn4nc(C)ccc4n3)oc2c1 [Example 224]
9,0.18 nM,COc1cc(OCc2csc(-c3ccc(F)nc3)n2)c2cc(-c3cn4nc(C)ccc4n3)oc2c1 [Example 228]
10,1.6 nM,COc1cc(OCc2csc(-c3ccc(Cl)cc3)n2)c2cc(-c3cn4nc(OC)sc4n3)oc2c1 [Example 27]
11,0.54 nM,COc1cc(OCc2nc(-c3ccc(C(=O)N(C)C)cc3)sc2C)c2cc(-c3cn4nc(C)ccc4n3)oc2c1 [Example 225]
12,0.88 nM,COc1cc(OCc2csc(-c3ccc(C(=O)NC(C)C)cc3)n2)c2cc(-c3cn4nc(OC)sc4n3)oc2c1 [Example 304]
13,0.43 nM,CCCN(C(=O)c1ccc(-c2nc(COc3cc(OC)cc4oc(-c5cn6nc(OC)sc6n5)cc34)cs2)cc1)C(C)C1CC1 (centres unmarked) [Example 313]
14,0.27 nM,CCN(CCC#N)C(=O)c1ccc(-c2nc(COc3cc(OC)cc4oc(-c5cn6nc(OC)sc6n5)cc34)cs2)cc1 [Example 292]
15,3.4 nM,COc1cc(OCc2csc(-c3ccccc3Cl)n2)c2cc(-c3cn4nc(OC)sc4n3)oc2c1 [Example 16]
16,0.55 nM,COc1cc(OCc2csc(-c3cccc(F)c3)n2)c2cc(-c3cn4nc(OC)sc4n3)oc2c1 [Example 25]
